Source: patent publication US11701434B2, “Tertiary amino lipidated cationic peptides for nucleic acid delivery” (Nutcracker Therapeutics, Inc., priority 2018, dated 2023)

Columns and labels:
[1] = Dynamic light scattering (DLS) of Fluc mRNA/peptoid formulations: particle size and polydispersity; assay type: physicochemical; settings: 5:1 mass ratio peptoid:cargo; for Size (volume average particle size/diameter): Fluc mRNA/peptoid complex; for Size PDI (size polydispersity index): Fluc mRNA/peptoid formulation
Method: (§1) In standard formulations, the tertiary amino lipidated and/or PEGylated cationic peptide compound is dissolved in anhydrous ethanol at a concentration of 0.5 mg/mL (for in vitro experiments) or 5 mg/mL (for in vivo experiments). The resulting solutions are stable at room temperature, but should be stored at −20° C. The nucleic acid cargo is dissolved in DNAse or RNAse-free water at a final concentration of 0.2 mg/mL (for in vitro experiments) or 1 mg/mL (for in vivo experiments). These solutions should be stored at −20° C. or at −78° C. for longer time periods. To prepare nanoparticle formulations, the tertiary amino lipidated and/or PEGylated cationic peptide compound is mixed by pipetting with nucleic acid at a mass ratio between approximately 1:1 (peptide compound:cargo) and 20:1. Prior to formulation, tertiary amino lipidated and/or PEGylated cationic peptide compounds and cargo (such as nucleic acid) are diluted in ethanol and acidic buffer (PBS adjusted to pH 5.5 with 0.1 M HCl) respectively to a volume ratio of 1:3 and to target a final cargo concentration of approximately 0.05 mg/mL to 0.2 mg/mL. The exemplary amino lipidated cationic peptoids 1-36 described in Example 2 were combined with firefly luciferase (Flue) mRNA to form nanoparticle compositions to be evaluated for therapeutic and/or prophylactic purposes in vitro or in vivo. The formulations were prepared according to the protocol of Example 3 and mixed by simple pipetting. The mRNA/peptoid formulation at a 5:1 mass ratio of peptoid:cargo were evaluated by dynamic light scattering (DLS) in order to determine the volume average particle size/diameter (nm) of the mRNA/peptoid complex and the size polydispersity index (PDI) within the formulation. The percentage of mRNA encapsulation for each formulation of the exemplary compounds were determined by fluorescence of the Qubit RNA HS (Invitrogen) dye before and after lysis of particles by Triton X-100.

[2] = mRNA encapsulation by Qubit RNA HS dye fluorescence before and after Triton X-100 lysis; assay type: physicochemical; settings: Fluc mRNA/peptoid formulation, 5:1 mass ratio peptoid:cargo
Method: as §1

Row | Compound | Size (volume average particle size/diameter) [1] [nm] | Size PDI (size polydispersity index) [1] | % Encapsulation (percentage of mRNA encapsulation) [2] [%]
1 | CCCCCCCCCCN(CC(N)=O)C(=O)CN(CCCCCCCCCC)C(=O)CN(CCc1ccccc1)C(=O)CN(CCc1ccccc1)C(=O)CN(CCNC)C(=O)CN(CCc1ccccc1)C(=O)CN(CCc1ccccc1)C(=O)CN(CCNC)C(=O)CN(CCc1ccccc1)C(=O)CN(CCc1ccccc1)C(=O)CNCCNC [Compound 27] | 438.7 | 0.606 | 50.9
2 | CCCCCCCCCCN(CC(N)=O)C(=O)CN(CCCCCCCCCC)C(=O)CN(CCCCCCCCCC)C(=O)CN(CCCCCCCCCC)C(=O)CN(CCc1ccccc1)C(=O)CN(CCc1ccccc1)C(=O)CN(CCCN)C(=O)CN(CCc1ccccc1)C(=O)CN(CCc1ccccc1)C(=O)CN(CCCN)C(=O)CN(CCc1ccccc1)C(=O)CN(CCc1ccccc1)C(=O)CNCCCN [Compound 28] | 308 | 0.085 | 52.0
3 | CCCCCCCCCCN(CC(N)=O)C(=O)CN(CCCCCCCCCC)C(=O)CN(CCc1ccccc1)C(=O)CN(CCc1ccccc1)C(=O)CN(CCCN)C(=O)CN(CCc1ccccc1)C(=O)CN(CCc1ccccc1)C(=O)CN(CCCN)C(=O)CN(CCc1ccccc1)C(=O)CN(CCc1ccccc1)C(=O)CNCCCN [Compound 30] | 282.8 | 0.455 | 8.4
4 | CCCCCCCCCCN(CC(N)=O)C(=O)CN(CCCCCCCCCC)C(=O)CN(CCCCCCCCCC)C(=O)CN(CCCCCCCCCC)C(=O)CN(CCc1ccccc1)C(=O)CN(CCc1ccccc1)C(=O)CN(CC1CCNCC1)C(=O)CN(CCc1ccccc1)C(=O)CN(CCc1ccccc1)C(=O)CN(CC1CCNCC1)C(=O)CN(CCc1ccccc1)C(=O)CN(CCc1ccccc1)C(=O)CNCC1CCNCC1 [Compound 31] | 348.5 | 0.404 | 35.7
5 | CCCCCCCCCCN(CC(N)=O)C(=O)CN(CCCCCCCCCC)C(=O)CN(CCc1ccccc1)C(=O)CN(CCc1ccccc1)C(=O)CN(CC1CCNCC1)C(=O)CN(CCc1ccccc1)C(=O)CN(CCc1ccccc1)C(=O)CN(CC1CCNCC1)C(=O)CN(CCc1ccccc1)C(=O)CN(CCc1ccccc1)C(=O)CNCC1CCNCC1 [Compound 33] | 435.7 | 0.048 | 82.0

Next, values leading:

Row | Size (volume average particle size/diameter) [1] [nm] | Size PDI (size polydispersity index) [1] | % Encapsulation (percentage of mRNA encapsulation) [2] [%] | Compound
6 | 247.5 | 0.274 | 50.9 | CCCCCCCCCCN(CC(N)=O)C(=O)CN(CCCCCCCCCC)C(=O)CN(CCCCCCCCCC)C(=O)CN(CCCCCCCCCC)C(=O)CN(CCc1ccccc1)C(=O)CN(CCc1ccccc1)C(=O)CN(CC1CCNCC1)C(=O)CN(CCc1ccccc1)C(=O)CN(CCc1ccccc1)C(=O)CN(CC1CCNCC1)C(=O)CN(CCc1ccccc1)C(=O)CN(CCc1ccccc1)C(=O)CN(CC1CCNCC1)C(=O)CN(CCc1ccccc1)C(=O)CN(CCc1ccccc1)C(=O)CNCC1CCNCC1 [Compound 32]
7 | 374.4 | 0.127 | 71.5 | CCCCCCCCCCN(CC(N)=O)C(=O)CN(CCCCCCCCCC)C(=O)CN(CCc1ccccc1)C(=O)CN(CCc1ccccc1)C(=O)CN(CC1CCCN1)C(=O)CN(CCc1ccccc1)C(=O)CN(CCc1ccccc1)C(=O)CN(CC1CCCN1)C(=O)CN(CCc1ccccc1)C(=O)CN(CCc1ccccc1)C(=O)CNCC1CCCN1 (stereo not drawn) [Compound 36]
